Data from the supplement of paper PMC10307832.

Legend:
Assay in all cases: relative viability (nuclei count vs DMSO), 5 days (fraction); higher = more cells survive
Vemurafenib + Bortezomib = compound: CCCS(=O)(=O)Nc1ccc(F)c(C(=O)c2c[nH]c3ncc(-c4ccc(Cl)cc4)cc23)c1F [Vemurafenib] + CC(C)C[C@H](NC(=O)[C@H](Cc1ccccc1)NC(=O)c1cnccn1)B(O)O [Bortezomib] (partner 0.002 µM)
Summary of the method: (§1)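 Cells from lung cancer lines were seeded into 1536-well plates and, one day later, dosed by pin tool. Treatments were either a single drug or a fixed dose of an anchor drug with five library-drug doses (not always all listed) in √10 steps. After 5 days, nuclei were stained in a one-step fixation (final 0.05% Triton X-100, 1% formaldehyde, 1 ug/ml Hoechst) and counted on 4× images, and relative viability is the treated-to-vehicle nuclei ratio, as the median of duplicate plates.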

Vemurafenib + Tozasertib = compound: CCCS(=O)(=O)Nc1ccc(F)c(C(=O)c2c[nH]c3ncc(-c4ccc(Cl)cc4)cc23)c1F [Vemurafenib] + Cc1cc(Nc2cc(N3CCN(C)CC3)nc(Sc3ccc(NC(=O)C4CC4)cc3)n2)n[nH]1 [Tozasertib] (partner 0.1 µM)
Summary of the method: as §1

Alpelisib + Bortezomib = compound: Cc1nc(NC(=O)N2CCC[C@H]2C(N)=O)sc1-c1ccnc(C(C)(C)C(F)(F)F)c1 [Alpelisib] + CC(C)C[C@H](NC(=O)[C@H](Cc1ccccc1)NC(=O)c1cnccn1)B(O)O [Bortezomib] (partner 0.002 µM)
Summary of the method: as §1

OSI-027 + Tozasertib = compound: COc1cccc2cc(-c3nc([C@H]4CC[C@H](C(=O)O)CC4)n4ncnc(N)c34)[nH]c12 [OSI-027] + Cc1cc(Nc2cc(N3CCN(C)CC3)nc(Sc3ccc(NC(=O)C4CC4)cc3)n2)n[nH]1 [Tozasertib] (partner 0.1 µM)
Summary of the method: as §1

Row | Cell Line | relative viability (Vemurafenib + Bortezomib; first compound 0.03162 µM) | relative viability (Vemurafenib + Bortezomib; first compound 0.1 µM) | relative viability (Vemurafenib + Bortezomib; first compound 0.3162 µM) | relative viability (Vemurafenib + Bortezomib; first compound 1 µM) | relative viability (Vemurafenib + Tozasertib; first compound 0.03162 µM) | relative viability (Vemurafenib + Tozasertib; first compound 0.1 µM) | relative viability (Vemurafenib + Tozasertib; first compound 0.3162 µM) | relative viability (Vemurafenib + Tozasertib; first compound 1 µM) | relative viability (Alpelisib + Bortezomib; first compound 0.04 µM) | relative viability (Alpelisib + Bortezomib; first compound 0.1265 µM) | relative viability (Alpelisib + Bortezomib; first compound 0.4 µM) | relative viability (Alpelisib + Bortezomib; first compound 1.265 µM) | relative viability (Alpelisib + Bortezomib; first compound 4 µM) | relative viability (OSI-027 + Tozasertib; first compound 0.01 µM) | relative viability (OSI-027 + Tozasertib; first compound 0.03162 µM) | relative viability (OSI-027 + Tozasertib; first compound 0.1 µM) | relative viability (OSI-027 + Tozasertib; first compound 0.3162 µM) | relative viability (OSI-027 + Tozasertib; first compound 1 µM)
1 | HCC-15 | 0.958 | 1.01 | 0.848 | 0.844 | 0.375 | 0.4 | 0.389 | 0.253 | 1.03 | 0.948 | 1.04 | 0.898 | 0.858 | 0.458 | 0.4 | 0.429 | 0.414 | 0.266
2 | HCC-44 | 0.861 | 0.993 | 0.824 | 0.861 | 0.829 | 0.917 | – | 0.763 | 0.882 | 0.873 | 0.937 | 0.788 | 0.683 | 0.945 | 0.859 | 1.05 | 0.84 | 0.685
3 | HCC-78 | 0.433 | 0.439 | 0.674 | 0.506 | 0.405 | 0.316 | 0.507 | 0.468 | 0.427 | 0.474 | 0.686 | 0.337 | 0.366 | 0.506 | 0.374 | 0.435 | 0.334 | 0.241
4 | HCC-366 | 1 | 1.05 | – | 1.06 | 0.0795 | 0.0611 | 0.0563 | 0.0677 | 0.974 | 1.05 | 1.02 | 0.82 | 0.419 | 0.13 | 0.113 | 0.0867 | 0.128 | 0.0744
